Reference: ChEMBL document CHEMBL4808169, “Discovery of Potent and Fast-Acting Antimalarial Bis-1,2,4-triazines” (J Med Chem, 2021)
Active and inactive are the calls of the source. No cut-off for these calls is given here.

Legend:
[1] = molecular target: T1, Cytochrome P450 1A2 (Homo sapiens, UniProt P05177); experiment: Inhibition of CYP1A2 in human liver microsomes assessed as reduction in […] activity by . high-pressure liquid chromatography-tandem mass spectrometry; assay type: ADME
T1 sequence (P05177 whole entry): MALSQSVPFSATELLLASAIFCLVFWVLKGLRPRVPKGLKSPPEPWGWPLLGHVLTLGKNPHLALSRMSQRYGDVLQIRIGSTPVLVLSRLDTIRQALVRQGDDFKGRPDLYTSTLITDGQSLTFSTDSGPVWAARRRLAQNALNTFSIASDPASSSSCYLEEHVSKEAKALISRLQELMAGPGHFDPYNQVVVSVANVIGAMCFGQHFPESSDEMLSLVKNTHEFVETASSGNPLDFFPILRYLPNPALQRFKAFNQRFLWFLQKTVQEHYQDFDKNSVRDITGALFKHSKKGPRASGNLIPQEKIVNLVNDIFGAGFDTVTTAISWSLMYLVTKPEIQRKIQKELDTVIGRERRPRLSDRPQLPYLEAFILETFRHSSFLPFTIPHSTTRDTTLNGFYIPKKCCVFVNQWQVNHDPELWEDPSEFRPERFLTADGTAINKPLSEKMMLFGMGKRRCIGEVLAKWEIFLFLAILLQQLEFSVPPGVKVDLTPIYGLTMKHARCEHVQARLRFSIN

[2] = Drug metabolism in rat hepatocytes assessed as 3'-propoxy-5,5'-bi(1,2,4-triazin)-3-ol formation by LC-MS/MS(CID) analysis; assay type: ADME, cell-based, Hepatocyte
[3] = Apparent blood clearance in Sprague-Dawley rat at 3 mg/kg, iv measured up to 24 hrs by LC-MS analysis; assay type: ADME, organism-based; conditions: read-out: CL(app)
[4] = Drug metabolism in Sprague-Dawley rat urine assessed as oxygenated metabolite M+16(1) formation at 3 mg/kg, iv by high-resolution mass spectrometry; assay type: ADME, organism-based; conditions: in vivo
[5] = Tmax in Sprague-Dawley rat plasma at 10 mg/kg, po administered via gavage measured up to 24 hrs by LC-MS analysis; assay type: ADME, organism-based
[6] = Drug metabolism in mouse hepatocytes assessed as oxygenated metabolite M+16(1) formation by LC-MS/MS(CID) analysis; assay type: ADME, cell-based, Hepatocyte
[7] = Clearance in ABT-treated Sprague-Dawley rat blood at 3 mg/kg, iv by LC-MS analysis; assay type: ADME, organism-based
[8] = Tmax in Swiss mouse at 27 mg/kg, po measured up to 24 hrs by LC-MS analysis; assay type: ADME, organism-based; conditions: in vivo
[9] = molecular target: Cytochrome P450 3A4 (Homo sapiens, UniProt P08684); experiment: Inhibition of CYP3A4 in human liver microsomes assessed as reduction in midazolam 1-hydroxylase activity by . high-pressure liquid chromatography-tandem mass spectrometry; assay type: ADME
Chain of Cytochrome P450 3A4 (P08684 whole entry): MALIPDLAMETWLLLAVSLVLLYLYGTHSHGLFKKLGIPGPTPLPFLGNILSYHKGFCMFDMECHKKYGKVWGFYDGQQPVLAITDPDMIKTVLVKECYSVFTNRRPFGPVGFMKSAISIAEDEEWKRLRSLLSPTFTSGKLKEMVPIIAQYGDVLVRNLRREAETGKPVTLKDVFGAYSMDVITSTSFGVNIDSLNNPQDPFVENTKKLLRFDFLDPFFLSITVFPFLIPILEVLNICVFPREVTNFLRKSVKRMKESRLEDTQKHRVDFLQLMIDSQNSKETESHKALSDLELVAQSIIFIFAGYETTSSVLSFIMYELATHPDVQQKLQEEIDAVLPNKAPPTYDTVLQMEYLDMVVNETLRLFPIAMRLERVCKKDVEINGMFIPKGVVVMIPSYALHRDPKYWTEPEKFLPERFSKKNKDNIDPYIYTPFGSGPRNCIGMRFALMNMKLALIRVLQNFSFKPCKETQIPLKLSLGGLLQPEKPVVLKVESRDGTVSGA

[10] = test system: Plasmodium; experiment: Antimalarial activity against Plasmodium assessed as transmission blocking potential by measuring reduction in female gamete formation by dual gamete formation assay; assay type: functional, organism-based
[11] = Clearance in Sprague-Dawley rat plasma at 3 mg/kg, iv measured up to 24 hrs by LC-MS analysis; assay type: ADME, organism-based
[12] = test system: Plasmodium falciparum; experiment: Antiplasmodial activity against Plasmodium falciparum 3D70087/N9 infected in NOD-SCID 1L2Rgamma mouse assessed as reduction in parasitemia at 50 mg/kg, po administered for 4 days starting from day 3 post infection by Peter's 4-day test; assay type: functional, organism-based
[13] = Drug metabolism in rat liver microsomes assessed as oxygenated metabolite M+16(1) formation by LC-MS/MS(CID) analysis; assay type: ADME, Microsome
[14] = Drug excretion in Sprague-Dawley rat urine 3 mg/kg, iv measured up to 24 hrs by LC-MS analysis; assay type: ADME, organism-based; conditions: read-out: Drug excretion
[15] = Selectivity ratio of CC50 for HEK293 cells to IC50 for Plasmodium falciparum 3D7; assay type: toxicity; conditions: human, read-out: Ratio CC50/IC50
[16] = Metabolic stability of compound in Swiss mouse blood assessed as parent compound loss measured over 4 hrs by LC-MS analysis; assay type: ADME, tissue-based; conditions: whole blood, read-out: Drug degradation
[17] = Drug metabolism in human liver microsomes assessed as 3'-propoxy-5,5'-bi(1,2,4-triazin)-3-ol formation by LC-MS/MS(CID) analysis; assay type: ADME, Microsome
[18] = Drug metabolism in Sprague-Dawley rat urine assessed as oxygenated metabolite N-methyl-2-(3'-propoxy-5,5'-bi(1,2,4-triazin)-3-yloxy)ethanamine oxide formation at 10 mg/kg, po by high-resolution mass spectrometry; assay type: ADME, organism-based; conditions: in vivo
[19] = molecular target: Cytochrome P450 2C9 (Homo sapiens, UniProt P11712); experiment: Inhibition of CYP2C9 in human liver microsomes assessed as reduction in […] activity by . high-pressure liquid chromatography-tandem mass spectrometry; assay type: ADME
Chain of Cytochrome P450 2C9 (P11712 whole entry): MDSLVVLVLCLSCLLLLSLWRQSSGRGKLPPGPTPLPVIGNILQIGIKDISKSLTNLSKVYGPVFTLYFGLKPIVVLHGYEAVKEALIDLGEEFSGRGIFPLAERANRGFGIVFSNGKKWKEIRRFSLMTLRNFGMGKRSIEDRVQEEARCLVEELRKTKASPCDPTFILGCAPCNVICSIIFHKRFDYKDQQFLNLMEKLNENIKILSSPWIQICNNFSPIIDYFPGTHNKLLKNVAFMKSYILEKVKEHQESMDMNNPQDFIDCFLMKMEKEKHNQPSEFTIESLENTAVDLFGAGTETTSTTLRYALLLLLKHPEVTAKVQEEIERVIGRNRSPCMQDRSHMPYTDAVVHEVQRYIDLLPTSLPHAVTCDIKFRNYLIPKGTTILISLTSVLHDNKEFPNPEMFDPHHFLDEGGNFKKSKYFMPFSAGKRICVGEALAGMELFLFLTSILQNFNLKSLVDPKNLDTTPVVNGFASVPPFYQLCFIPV

[20] = Drug metabolism in mouse hepatocytes assessed as N-methyl-2-(3'-propoxy-5,5'-bi(1,2,4-triazin)-3-yloxy)ethanamine formation by LC-MS/MS(CID) analysis; assay type: ADME, cell-based, Hepatocyte
[21] = Drug concentration in blood of NOD-SCID 1L2Rgamma mouse infected with Plasmodium falciparum 3D70087/N9 at 50 mg/kg, po measured after 6 hrs by LC-MS/MS analysis; assay type: ADME, organism-based; conditions: read-out: Drug uptake
[22] = Toxicity in Swiss mouse assessed as loss of mobility at 32 mg/kg/day administered for 4 days; assay type: organism-based; conditions: in vivo, 96 h, time 4 day
[23] = Drug metabolism in Sprague-Dawley rat feces assessed as oxygenated metabolite M+16(2) formation at 3 mg/kg, iv by high-resolution mass spectrometry; assay type: ADME, organism-based; conditions: in vivo
[24] = Drug metabolism in mouse liver microsomes assessed as N-methyl-2-(3'-propoxy-5,5'-bi(1,2,4-triazin)-3-yloxy)ethanamine formation by LC-MS/MS(CID) analysis; assay type: ADME, Microsome
[25] = Protein binding in rat plasma measured after 6 hrs by LC-MS analysis based equilibrium dialysis method; assay type: ADME, cell-free; conditions: read-out: PPB (converted)
[26] = Drug metabolism in mouse liver microsomes assessed as oxygenated metabolite M+16(2) formation by LC-MS/MS(CID) analysis; assay type: ADME, Microsome
[27] = Drug metabolism in mouse liver microsomes assessed as formation of cleavage product M-69 in presence of NADPH by LC-MS/MS(CID) analysis; assay type: ADME, Microsome
[28] = AUC (0 to infinity) in Swiss mouse plasma at 27 mg/kg, po measured up to 24 hrs by LC-MS analysis
[29] = Apparent half life in Swiss mouse at 2.7 mg/kg, iv measured up to 24 hrs by LC-MS analysis; assay type: ADME, organism-based; conditions: in vivo, read-out: t1/2(app) (converted)
[30] = Drug metabolism in human liver microsomes assessed as oxygenated metabolite N-methyl-2-(3'-propoxy-5,5'-bi(1,2,4-triazin)-3-yloxy)ethanamine oxide formation by LC-MS/MS(CID) analysis; assay type: ADME, Microsome
[31] = Drug metabolism in Sprague-Dawley rat plasma assessed as M-69 metabolite formation at 10 mg/kg, po by high-resolution mass spectrometry; assay type: ADME, organism-based; conditions: in vivo
[32] = Drug metabolism in human liver microsomes assessed as N-methyl-2-(3'-propoxy-5,5'-bi(1,2,4-triazin)-3-yloxy)ethanamine formation by LC-MS/MS(CID) analysis; assay type: ADME, Microsome

IC50 [1]: > 20 µM
Drug metabolism [2]: Metabolite_Detected
clearance [3]: 205 mL/min/kg
Drug metabolism [4]: Metabolite_Detected
Tmax [5]: 1.3 h
Drug metabolism [6]: Metabolite_Detected
clearance [7]: 232 mL/min/kg
Tmax [8]: 1 h
IC50 [9]: > 20 µM
EC50 [10]: 2.9 µM
clearance [11]: 249 mL/min/kg
Drug metabolism [13]: Metabolite_Detected
dose excreted at 24 h [14]: < 3%
metabolised at 4 h [16]: 23%
Drug metabolism [17]: Metabolite_Notdetected
Drug metabolism [18]: Metabolite_Detected
IC50 [19]: > 20 µM
Drug metabolism [20]: Metabolite_Detected
concentration at 6 h [21]: 150 ng/mL
Drug metabolism [23]: Metabolite_Detected
Drug metabolism [24]: Metabolite_Detected
fraction unbound at 6 h [25]: 0.78
Drug metabolism [26]: Metabolite_Detected
Drug metabolism [27]: Metabolite_Detected
AUC(0-inf) [28]: 0.44 µM·h
half-life [29]: 0.2 h
Drug metabolism [30]: Metabolite_Detected
Drug metabolism [31]: Metabolite_Detected
Drug metabolism [32]: Metabolite_Notdetected
SMILES: CCCOc1nncc(-c2cnnc(OCCN(C)C)n2)n1
Activity [12]: Active
selectivity ratio [15]: > 1000
Activity [22]: Non-Toxic
